# Literature values in US20260199282A1, “METHODS AND COMPOSITIONS FOR IMPROVING DRIVING PERFORMANCE” (priority 2022, published 2026).
# Tested on: patients with narcolepsy or idiopathic hypersomnia
# Conditions: modafinil 400 mg/day; ~1.5 hours post-dose; cited from earlier work
smiles,measurement,value
NC(=O)C[S+]([O-])C(c1ccccc1)c1ccccc1 (stereo not shown) [modafinil],mean SDLP,23.6±0.6 cm
